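Growth conditions: 96-well plates. Treatment: test compound, 48 hours, 5 concentrations. Analysis: linear interpolation between bracketing concentrations; unreached endpoints set to highest concentration. GI50 marks 50% less growth.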 Active and inactive are the calls of the source. Cut-off read from the data, not from the text of the source: active = GI50 up to about 1.1 µM and inactive = higher.
What was measured:
Test in all cases: NCI tumour cell line growth inhibition, 48 h
[1] = system: EKVX
[2] = system: HCT-15
[3] = system: HOP-62
[4] = system: HT-29
[5] = system: Hs-578T
[6] = system: MDA-MB-435
[7] = system: NCI/ADR-RES
[8] = system: OVCAR-3
[9] = system: OVCAR-8
[10] = system: SF-268
[11] = system: SF-295
[12] = system: SF-539
[13] = system: SK-MEL-5
[14] = system: SK-OV-3
[15] = system: SR
[16] = system: SW-620
[17] = system: T47D
[18] = system: U-251
[19] = system: HCC 2998
[20] = system: MCF7

**Q.** Which results are given for `O=c1nc(N2CCCCC2)sc2[nH]c3ccccc3c12`?
**A.** GI50 [1]: > 100 µM (inactive); GI50 [2]: > 100 µM; GI50 [3]: 36.2 µM (inactive); GI50 [4]: 62.4 µM (inactive); GI50 [5]: > 100 µM (inactive); GI50 [6]: > 100 µM (inactive); GI50 [7]: 12.6 µM (inactive); GI50 [8]: 88.9 µM (inactive); GI50 [9]: > 100 µM (inactive); GI50 [10]: 54.3 µM (inactive); GI50 [11]: > 100 µM (inactive); GI50 [12]: > 100 µM (inactive); GI50 [13]: > 100 µM (inactive); GI50 [14]: > 100 µM (inactive); GI50 [15]: > 100 µM (inactive); GI50 [16]: > 100 µM (inactive); GI50 [17]: > 100 µM (inactive); GI50 [18]: 96.4 µM (inactive)

**Q.** What does the source list for `COc1ccc(N2C(=O)C3c4[nH]c5ccc(OC)cc5c4C4CCC(C(C)(C)C)CC4C3C2=O)cc1` (configuration not stated)?
**A.** GI50 [1]: 24.7 µM (inactive); GI50 [19]: 45.3 µM (inactive); GI50 [2]: > 100 µM; GI50 [3]: 16 µM (inactive); GI50 [4]: 32.5 µM (inactive); GI50 [8]: 92.3 µM (inactive); GI50 [9]: 25 µM (inactive); GI50 [10]: 14.3 µM (inactive); GI50 [11]: 9.51 µM (inactive); GI50 [12]: 12.8 µM (inactive); GI50 [13]: 21.1 µM (inactive); GI50 [14]: 15.2 µM (inactive); GI50 [15]: 17.4 µM (inactive); GI50 [16]: 93.5 µM (inactive); GI50 [18]: 17.5 µM (inactive)

**Q.** Which GI50 [1] does the source give for `CC(C)Oc1ccc2c(c1)OCC1Cc3ccccc3OC21` (configuration not stated) here?
**A.** The GI50 was 75.9 µM (inactive).

**Q.** And the GI50 [19]?
**A.** The GI50 was 96.8 µM (inactive).

**Q.** What about the GI50 [2] of the same compound?
**A.** The GI50 was 18.3 µM.

**Q.** What about the GI50 [3] of the same compound?
**A.** The GI50 was > 100 µM (inactive).

**Q.** And the GI50 [4]?
**A.** The GI50 was 41.4 µM (inactive).

**Q.** What about the GI50 [20] of the same compound?
**A.** Its GI50 is 46.8 µM (inactive).

**Q.** And the GI50 [6]?
**A.** The GI50 was 63.2 µM (inactive).

**Q.** And the GI50 [7]?
**A.** Its GI50 is 71.9 µM (inactive).

**Q.** What about the GI50 [8] of the same compound?
**A.** Its GI50 is > 100 µM (inactive).

**Q.** And the GI50 [9]?
**A.** Its GI50 is > 100 µM (inactive).

**Q.** And the GI50 [10]?
**A.** Its GI50 is > 100 µM (inactive).

**Q.** What about the GI50 [11] of the same compound?
**A.** The GI50 was 63.2 µM (inactive).

**Q.** And the GI50 [12]?
**A.** Its GI50 is > 100 µM (inactive).

**Q.** And the GI50 [13]?
**A.** The GI50 was 23 µM (inactive).

**Q.** What about the GI50 [14] of the same compound?
**A.** The GI50 was > 100 µM (inactive).

**Q.** What about the GI50 [15] of the same compound?
**A.** Its GI50 is > 100 µM (inactive).

**Q.** What about the GI50 [16] of the same compound?
**A.** The GI50 was > 100 µM (inactive).

**Q.** And the GI50 [17]?
**A.** The GI50 was 55.2 µM (inactive).

**Q.** And the GI50 [18]?
**A.** The GI50 was > 100 µM (inactive).

**Q.** Which results are given for `CSc1cnn(CCC#N)c(=O)n1`?
**A.** GI50 [1]: > 100 µM (inactive); GI50 [19]: > 100 µM (inactive); GI50 [2]: > 10 µM; GI50 [3]: > 100 µM (inactive); GI50 [4]: > 100 µM (inactive); GI50 [5]: > 100 µM (inactive); GI50 [20]: 39.4 µM (inactive); GI50 [6]: > 100 µM (inactive); GI50 [9]: > 100 µM (inactive); GI50 [10]: > 100 µM (inactive); GI50 [11]: > 100 µM (inactive); GI50 [12]: > 100 µM (inactive); GI50 [13]: 26.4 µM (inactive); GI50 [14]: > 100 µM (inactive); GI50 [15]: 40.9 µM (inactive); GI50 [16]: 74.6 µM (inactive); GI50 [17]: > 100 µM (inactive); GI50 [18]: > 100 µM (inactive)

**Q.** What does the source list for `O=c1c2cc([N+](=O)[O-])ccc2n2n1Cc1ccccc1CC2`?
**A.** GI50 [1]: 2.11 µM (inactive); GI50 [19]: > 100 µM (inactive); GI50 [2]: > 100 µM; GI50 [3]: > 100 µM (inactive); GI50 [4]: > 100 µM (inactive); GI50 [5]: 74.8 µM (inactive); GI50 [20]: > 100 µM (inactive); GI50 [6]: > 100 µM (inactive); GI50 [7]: > 100 µM (inactive); GI50 [8]: > 100 µM (inactive); GI50 [9]: > 100 µM (inactive); GI50 [10]: > 100 µM (inactive); GI50 [11]: > 100 µM (inactive); GI50 [12]: > 100 µM (inactive); GI50 [13]: > 100 µM (inactive); GI50 [14]: > 100 µM (inactive); GI50 [15]: > 100 µM (inactive); GI50 [16]: > 100 µM (inactive); GI50 [18]: > 100 µM (inactive)

**Q.** `NCC(=O)Nc1ccccc1` was tested. Which GI50 [1] did it give?
**A.** Its GI50 is > 100 µM (inactive).

**Q.** What about the GI50 [19] of the same compound?
**A.** The GI50 was > 100 µM (inactive).

**Q.** And the GI50 [2]?
**A.** The GI50 was over 100 µM.

**Q.** What about the GI50 [3] of the same compound?
**A.** The GI50 was > 100 µM (inactive).

**Q.** And the GI50 [4]?
**A.** The GI50 was > 100 µM (inactive).

**Q.** And the GI50 [5]?
**A.** Its GI50 is > 100 µM (inactive).

**Q.** And the GI50 [6]?
**A.** The GI50 was > 100 µM (inactive).

**Q.** What about the GI50 [7] of the same compound?
**A.** The GI50 was > 100 µM (inactive).

**Q.** And the GI50 [8]?
**A.** The GI50 was > 100 µM (inactive).

**Q.** What about the GI50 [9] of the same compound?
**A.** Its GI50 is > 100 µM (inactive).

**Q.** And the GI50 [10]?
**A.** Its GI50 is > 100 µM (inactive).

**Q.** What about the GI50 [11] of the same compound?
**A.** The GI50 was > 100 µM (inactive).

**Q.** And the GI50 [13]?
**A.** Its GI50 is > 100 µM (inactive).

**Q.** And the GI50 [15]?
**A.** The GI50 was > 100 µM (inactive).

**Q.** What about the GI50 [16] of the same compound?
**A.** The GI50 was > 100 µM (inactive).

**Q.** What about the GI50 [17] of the same compound?
**A.** Its GI50 is > 100 µM (inactive).

**Q.** And the GI50 [18]?
**A.** The GI50 was > 100 µM (inactive).

**Q.** Which GI50 [1] does the source give for `C=CCN1C(=O)C(=O)N(CC=C)C(=O)C1=O` here?
**A.** Its GI50 is > 100 µM (inactive).

**Q.** And the GI50 [19]?
**A.** Its GI50 is > 100 µM (inactive).

**Q.** What about the GI50 [2] of the same compound?
**A.** Its GI50 is over 100 µM.

**Q.** And the GI50 [3]?
**A.** Its GI50 is > 100 µM (inactive).

**Q.** What about the GI50 [4] of the same compound?
**A.** The GI50 was > 100 µM (inactive).

**Q.** And the GI50 [8]?
**A.** Its GI50 is > 100 µM (inactive).

**Q.** What about the GI50 [9] of the same compound?
**A.** Its GI50 is > 100 µM (inactive).

**Q.** And the GI50 [10]?
**A.** Its GI50 is > 100 µM (inactive).

**Q.** What about the GI50 [11] of the same compound?
**A.** The GI50 was > 100 µM (inactive).

**Q.** What about the GI50 [12] of the same compound?
**A.** Its GI50 is > 100 µM (inactive).

**Q.** And the GI50 [13]?
**A.** The GI50 was > 100 µM (inactive).

**Q.** What about the GI50 [14] of the same compound?
**A.** Its GI50 is > 100 µM (inactive).

**Q.** What about the GI50 [15] of the same compound?
**A.** The GI50 was > 100 µM (inactive).

**Q.** What about the GI50 [16] of the same compound?
**A.** Its GI50 is > 100 µM (inactive).

**Q.** What about the GI50 [18] of the same compound?
**A.** Its GI50 is > 100 µM (inactive).

**Q.** What does the source list for `Cc1cc(OCC(=O)N/N=C/C(Br)=C/c2ccccc2)nc(SCC(=O)N/N=C/C(Br)=C/c2ccccc2)n1`?
**A.** GI50 [1]: 80 µM (inactive); GI50 [19]: 23 µM (inactive); GI50 [2]: > 100 µM; GI50 [3]: 51.5 µM (inactive); GI50 [4]: > 100 µM (inactive); GI50 [5]: 39.9 µM (inactive); GI50 [20]: 75.7 µM (inactive); GI50 [6]: > 100 µM (inactive); GI50 [7]: 53.6 µM (inactive); GI50 [8]: > 100 µM (inactive); GI50 [10]: 48.2 µM (inactive); GI50 [11]: > 100 µM (inactive); GI50 [13]: > 100 µM (inactive); GI50 [15]: > 100 µM (inactive); GI50 [16]: > 100 µM (inactive); GI50 [18]: > 100 µM (inactive)

From ChEMBL document CHEMBL1201862, “PubChem BioAssay data set” (2004)
